Experimental data taken from patent publication US20200261409A1, “METHODS FOR PAIN TREATMENT USING RESINIFERATOXIN” (priority 2015, published 2020).
“Also recorded” adds a separate entry of the source.

Legend:
[1] = test system: sP+ axons in the dorsal horn of the spinal cord; test: Substance P (sP) immunohistochemistry of the spinal cord after PG-ED injection; type: in vivo, Yucatan miniature swine
Description: (§1) The study was approved by the Institutional Animal Care and Use Committee of the Mayo Clinic. Female Yucatan miniature swine (Exemplar Genetics, Sioux Center, Iowa, USA) weighing 25-45 kg at the time of RTX administration were used. For both procedures (i.e., ACLT and PG-ED injection), the pigs were anesthetized by intramuscular injection of Telazol (tiletamine and zolazepam, 5 mg/kg; Fort Dodge Animal Health, Fort Dodge, Iowa, USA), xylazine (2 mg/kg; Akorn, Decatur, Ill., USA), and glycopyrrolate (0.01 mg/kg; Baxter Healthcare, Deerfield, Ill., USA), followed by endotracheal intubation and anesthesia maintenance with 1.5%-2% isoflurane (Piramal Healthcare, Bethlehem, Pa., USA). For antibiotic prophylaxis, the animals were given a single dose of intramuscular ceftiofur (5 mg/kg; Pfizer, New York, N.Y., USA). For postoperative analgesia, the animals received a single dose of slow release buprenorphine (0.18 mg/kg; Wildlife Pharmaceuticals, Windsor, Colo., USA) intramuscularly and then oral carprofen (3 mg/kg; Pfizer Animal Health, New York, N.Y., USA) as needed for the first three postoperative days. For CTF guided PG-ED injection of RTX, a clinical CT scanner (Definition DS, Siemens Healthcare) with interventional CTF hardware and software packages was used. A full CT scan of the lumbosacral 13 spine was first performed to visualize the spinal anatomy and to identify the optimal access routes to the targeted PG-ED segments. The CT scanner acquisition settings were the same as reported previously (J. Pleticha, et al., Pig lumbar spine anatomy and imaging-guided lateral lumbar puncture: A new large animal model for intrathecal drug delivery, J. Neurosci. Methods 216, 10-15 (2013)). Next, a 22 G, 6″ spinal needle with Quincke tip (Kimberly-Clark, Roswell, Ga., USA) was advanced to the PG-ED space following the predetermined trajectory. […]

[2] = test system: other neuronal populations in the spinal cord (NeuN; primary motor neurons); test: Neuronal nuclei (NeuN) staining of the spinal cord after PG-ED injection; type: in vivo, Yucatan miniature swine; conditions: PG-ED injection of RTX; FIGS. 3A-3D
Description: as §1, with “used.” for “used. A full CT scan of the lumbosacral 13 spine was first performed to visualize the spinal anatomy and to identify the optimal access routes to the targeted PG-ED segments. The CT scanner acquisition settings were the same as reported previously (J. Pleticha, et al., Pig lumbar spine anatomy and imaging-guided lateral lumbar puncture: A new large animal model for intrathecal drug delivery, J. Neurosci. Methods 216, 10-15 (2013)). Next, a 22 G, 6″ spinal needle with Quincke tip (Kimberly-Clark, Roswell, Ga., USA) was advanced to the PG-ED space following the predetermined trajectory.”

[3] = test system: swine with gait asymmetry due to chronic knee pain induced by unilateral ACLT; test: Blinded behavioral assessment of the limp in the ACLT knee osteoarthritis model; type: in vivo, Yucatan miniature swine
Description: as §1

rats = conditions: subcutaneous and epidural administration; cited from earlier work

Compound | sP+ axonal terminals in the dorsal horn at injected spinal levels, ACLT animals ([1]; ACLT pigs, n=3 RTX, PG-ED at ipsilateral L4, L5, 51, and S2, FIGS. 4A-4F) | RTX dosed animals with low/none sP histology (blinded observer) ([1]; Example 7, second group of pigs, PG-ED, doses of 1.5 μg and 5 μg, P=0.002) | sP+ axons/fibers in the dorsal horn of the spinal cord at the injected levels ([1]; PG-ED injection, 5 μg RTX in 500 μl diluent per spinal level, blinded analysis, n=10 animals in study, sign test p<0.001) | NeuN staining (spinal cord neurons, motor neurons of the anterior horn) [2] | limp / gait asymmetry, before vs after injection (blinded observers) ([3]; ACLT pigs, n=3 RTX, PG-ED at ipsilateral L4, L5, 51, and S2, 3-5 weeks after administration, sign test p<0.02) | clinically observed pain-related behavior (blinded observer) ([3]; Example 7, pigs with knee osteoarthritis, n=8, PG-ED, p=0.03) | thermal analgesia, time without restoration of pain sensitivity (rats) | weight-bearing asymmetry ([3]; ACLT pigs, intramuscular, unblinded observations)
C=C(C)[C@]12C[C@@H](C)[C@@]34OC(Cc5ccccc5)(O[C@@H]1[C@@H]3C=C(COC(=O)Cc1ccc(O)c(OC)c1)C[C@]1(O)C(=O)C(C)=C[C@@H]41)O2 [RTX] | complete loss of sP+ fibers; also recorded: complete loss of the sP+ axonal terminals | 6 of 6 | no sP staining; also recorded: complete loss of sP+ axons | unaffected; also recorded: not affected | improvements in symmetric weight bearing; also recorded: improvement of limp in all animals; also recorded: all animals receiving RTX improved; also recorded: significant reversal of gait asymmetry | improved | over 7 days | –
CN1CC[C@]23c4c5ccc(O)c4O[C@H]2[C@@H](O)C=C[C@H]3[C@H]1C5 [morphine] | – | – | – | – | – | – | – | diminished weight-bearing asymmetry
